Test results: PubChem BioAssay AID2305 (GlaxoSmithKline (GSK), 2010)

What follows are molecules tested on P. falciparum 3D7 growth, pLDH absorbance (assay: blood-stage malaria parasite growth potency – strain 3D7, dose response (AID 2305)).
With COc1cccc(OC(C)(C)c2nc(N[C@@H](C)c3ccccc3)c3cn[nH]c3n2)c1 the IC50 was 970 nM. Molecule Nc1cc(C=Cc2ccc([N+](=O)[O-])s2)nc2ccccc12 has an IC50 of 760 nM. O=C(C=Cc1ccc(Cl)c(Cl)c1)NCCCCCN1CCC(CCNS(=O)(=O)c2ccc(F)cc2)CC1 gave an IC50 of 1090 nM. CN1CCCc2ccc(NC(=O)C=Cc3ccc(-c4ccc(F)cc4F)o3)cc2C1 was tested, and the IC50 was 520 nM. For Cc1c(-c2cccc(Br)c2)[nH]c2nc(N)nc(N)c12, the IC50 was 740 nM. For COCC(C)n1c(SC(C)C(=O)Nc2cc([N+](=O)[O-])ccc2Cl)nc2ccccc2c1=O (centres undefined), the IC50 was 230 nM. For O=[N+]([O-])c1cccc(S(=O)(=O)N2CCN(CC(O)COc3ccc(-c4ccccc4)cc3)CC2)c1 (centres undefined), the IC50 was 1360 nM. Work on O=C(Nc1cccc(CN2CCN(C(=O)c3cccc(Cl)c3)CC2)c1)c1ccco1 yielded an IC50 of 440 nM. Work on Cc1ccc2c(NN=Cc3cccc(Cl)c3)cc(C)nc2c1 yielded an IC50 of 950 nM. COc1cccc(C2CCN(CCN3CCC(CNC(=O)c4ccc(-c5ccc(C(F)(F)F)cc5)cc4)CC3)CC2)c1 was tested, and the IC50 was 890 nM. Molecule O=C(NC1CCN(CCN2CCC(c3cn(CCO)c4ccccc34)CC2)CC1)c1ccc(-c2ccc(C(F)(F)F)cc2)cc1 has an IC50 of 740 nM. COc1ccc(CCNc2nc(NCc3ccccc3)c3cc(OC)c(OC)cc3n2)cc1OC was tested, and the IC50 was 330 nM. Work on O=C(NCCCCN1CCN(c2nsc3ccccc23)CC1)c1ccccc1C(=O)NCCCCN1CCN(c2nsc3ccccc23)CC1 yielded an IC50 of 890 nM. For COc1ccc2nc(C)cc(Nc3ccc(Oc4ccc5ccccc5c4)c(Cl)c3)c2c1, the IC50 was 690 nM. Work on CN(C(=O)Nc1ccc(F)cc1)C1CCN(CCCCCNC(=O)/C=C/c2ccc(Cl)c(Cl)c2)CC1 yielded an IC50 of 890 nM. With O=C(Nc1cc(C(F)(F)F)cc(C(F)(F)F)c1)N1CCC(CN2CCC(c3c[nH]c4ccccc34)CC2)CC1 the IC50 was 190 nM. With COc1ccc(CN2CCCN(Cc3cccc(NC(=O)c4cc5ccccc5s4)c3)CC2)cc1 the IC50 was 840 nM. COC(=O)C1=CNC=C(C(=O)OC)C1c1ccc(Cl)c([N+](=O)[O-])c1 was tested, and the IC50 was 680 nM. COc1cc2c(cc1OCCN1CCC(N3CCCCC3)CC1)N(C(=O)/C=C/c1ccccc1OC(F)(F)F)CC2 gave an IC50 of 590 nM. For Nc1ncc(-c2ccc(F)c(Cl)c2)c(N)n1, the IC50 was 1230 nM. With COc1cc(Nc2nccc(-c3c(-c4cccc(NC(=O)c5c(F)cccc5F)c4)nn4ccccc34)n2)cc(OC)c1OC the IC50 was 80 nM. O=C(Nc1ccc([N+](=O)[O-])cc1)Nc1cc(OCC(F)(F)F)cc(OCC(F)(F)F)c1 gave an IC50 of 470 nM. In the case of CN(C)CCCN1CCN(C(=O)c2cccc(-c3noc(C(F)(F)F)n3)c2)CC1, the IC50 is reported as 350 nM. Work on Cc1noc(-c2ccc3c(c2)CCN(CCC2CCC(NC(=O)c4cc5ccccc5[nH]4)CC2)CC3)n1 (centres undefined) yielded an IC50 of 690 nM. In the case of CC(C)c1sc(-c2ccc(C(C)(C)C)cc2)nc1C(=O)NCCCN1CCCC1=O, the IC50 is reported as 670 nM. For CCOCCCNc1ncc(-c2ccsc2)c(-c2nc(C)cs2)n1, the IC50 was 270 nM. In the case of Cc1cc(C(=O)CN2C(=O)NC(C)(c3cccc4ccccc34)C2=O)c(C)n1Cc1ccco1 (centres undefined), the IC50 is reported as 630 nM. Cc1ccc(-c2nc3ccccc3o2)cc1NCc1cc(Cc2ccccc2)ccc1O gave an IC50 of 1030 nM. In the case of CS(=O)(=O)NCCCNCc1ccc(-c2ccc(-c3nc4ccc(C(F)(F)F)cc4[nH]3)cc2)cc1, the IC50 is reported as 460 nM. O=C(/C=C/c1cc(C(F)(F)F)ccc1F)NCCCCCN1CCC(c2c[nH]c3ccccc23)CC1 showed an IC50 of 1130 nM. With Cc1cc(NC(=O)c2cccs2)ccc1OC1CCN(Cc2ccc(F)cc2)C1 (centres undefined) the IC50 was 670 nM. For COc1cc(NC(=O)c2c(-c3c(F)cccc3Cl)noc2C)c(OC)cc1Cl, the IC50 was 860 nM. Molecule CCCc1cc(NCC)nc(Nc2ccc(F)cc2)n1 has an IC50 of 1030 nM. CCc1ccc(CN2CCC(CNC(=O)c3cc(-c4ccccc4F)cs3)C2)cc1 (centres undefined) was tested, and the IC50 was 900 nM. Molecule Cc1ccccc1-c1nc2c(CN3CCC(O)(c4ccccc4)CC3)c(O)ccc2[nH]1 has an IC50 of 870 nM. COc1cc(NC(=O)c2cc3c(C)nn(-c4cccc(C(F)(F)F)c4)c3s2)cc(OC)c1OC was tested, and the IC50 was 800 nM. Molecule O=C(Nc1ccc(Br)cc1)N(CCN1CCOCC1)CC(O)COc1ccc(Cl)c(F)c1 (centres undefined) has an IC50 of 1040 nM. Molecule CCN1CCCC(CNC(=O)/C(=C/C=C/c2cc3cc(Cl)c(Cl)cc3[nH]2)OC)C1 (centres undefined) has an IC50 of 890 nM. Nc1nc(N)c2c(n1)CCc1cc(Br)ccc1-2 showed an IC50 of 1130 nM. Work on COc1cc(NCCCNC(=O)c2cc3c(Cl)cc(Cl)cc3[nH]2)nc2ccccc12 yielded an IC50 of 140 nM. Cc1ccccc1NC(=S)NC1CCN(CCCCCNC(=O)/C=C/c2ccc(Cl)c(Cl)c2)CC1 was tested, and the IC50 was 790 nM. In the case of Oc1cccc(-c2nc(-c3cccc(I)c3)c(-c3ccc(-c4nc(-c5cccc(O)c5)[nH]c4-c4cccc(I)c4)cc3)[nH]2)c1, the IC50 is reported as 920 nM. For CCNc1c2ccc(Cl)cc2nc2ccc(OC)cc12, the IC50 was 840 nM. For COc1ccc(NC(=O)Nc2cccc(-c3cccc(-c4nc5ccc(F)cc5[nH]4)c3)c2)cc1, the IC50 was 170 nM. In the case of CN(C)C=Nc1ccc(OCCCCCCOc2ccc(N=CN(C)C)cc2)cc1, the IC50 is reported as 130 nM. With Cc1cccc(CN2CCCC3(CCN(Cc4ccccc4O)C3)C2)c1 (centres undefined) the IC50 was 800 nM. With Nc1nc2c(ncn2OC[C@H](CO)OCP(=O)(O)O)c(=O)[nH]1 the IC50 was 340 nM. CCCCCCN1CCC(NCc2cccc(C#N)c2)CC1 was tested, and the IC50 was 780 nM. Molecule Cc1ccc(CNC(=O)[C@H](Cc2ccccc2)Nc2cc(C)nc(NCc3ccccc3C)n2)cc1 has an IC50 of 800 nM. Cc1ccc(NC(=O)NC2CCN(CCCCCNC(=O)/C=C/c3ccc(Cl)c(Cl)c3)CC2)cc1C showed an IC50 of 730 nM. COc1cc2nc(N3CCC(CNC(=O)c4ccc(-c5ccc(C(F)(F)F)cc5)cc4)CC3)nc(N)c2cc1OC gave an IC50 of 130 nM. In the case of Cc1cc(NC(=O)NCCN2CCC(NS(=O)(=O)c3ccccc3F)CC2)c2ccccc2n1, the IC50 is reported as 950 nM. With N#Cc1ccc(CNCCCCCCNCc2ccc(C#N)c3ccccc23)c2ccccc12 the IC50 was 610 nM. In the case of COc1ccc2nccc([C@@H](O)CN3CCC(NCc4cnc5c(c4)NC(=O)CS5)CC3)c2c1, the IC50 is reported as 860 nM. Cc1cc(NC(=O)c2ccco2)ccc1OC1CCN(Cc2ccc(F)cc2)C1 (centres undefined) gave an IC50 of 640 nM. For O=S(=O)(Nc1ccc(CCN2CCC(N3CCCCC3)CC2)cc1)c1cccc2cccnc12, the IC50 was 1060 nM. In the case of COc1ccc2nccc(N(C)CC3(O)CCC(NCc4cc5c(cn4)OCCO5)CC3)c2n1 (centres undefined), the IC50 is reported as 680 nM. In the case of Cc1nc(-c2cccc(C(=O)N(Cc3cncn3Cc3cccc(C(F)(F)F)c3)CC3CC3)c2)cs1, the IC50 is reported as 940 nM. CCNCc1ccc(-c2cccc(-c3nc4ccccc4[nH]3)c2)cc1 showed an IC50 of 550 nM. OCC(CO)(CO)NCc1ccc2c3c(cccc13)-c1ccccc1-2 was tested, and the IC50 was 1260 nM. Work on Cc1cc(C)cc(OCC(O)CN(Cc2cc(Cl)cc(Cl)c2)C(=O)Nc2ccc(Cl)cc2)c1 (centres undefined) yielded an IC50 of 810 nM. Molecule COc1ccc2nccc([C@@H](O)CN3CCC(NCc4cc5c(Cl)cccc5[nH]4)CC3)c2c1 has an IC50 of 160 nM. With O=C(NCc1ccccc1)C1Cc2c([nH]c3ccc(Br)cc23)C2(CCN(Cc3ccccc3)CC2)N1 (centres undefined) the IC50 was 870 nM. N#Cc1ccc(-c2nc3c(N4CCCC4)cccc3n2CCNCc2ccccc2)cc1 showed an IC50 of 590 nM. Work on O=C(NCCN1CCCC1)c1cccc(-c2ccc(-c3nc4ccc(F)cc4[nH]3)s2)c1 yielded an IC50 of 1530 nM. c1cc(Nc2nc(-c3ccc(-c4csc(Nc5ccncc5)n4)cc3)cs2)ccn1 showed an IC50 of 120 nM. For c1ccc(COc2ccc(C3CCCCC3)cc2)nc1, the IC50 was 770 nM. CC1CCN(CC[C@H]2CCCN2S(=O)(=O)c2cccc(NC(=O)c3ccc(-c4ccccc4)cc3)c2)CC1 gave an IC50 of 1260 nM. Nc1cc(-c2cc3c(OCc4ccccc4)cccc3[nH]2)ccn1 showed an IC50 of 1190 nM. CN1CCC(NCc2cccc(-c3ccc(S(=O)(=O)NCc4ccccc4)cc3)c2)CC1 was tested, and the IC50 was 690 nM. For Oc1ccc(CCNc2nc(NCCCOc3ccccc3-c3ccc(C(F)(F)F)cc3)nc(N3CCNCC3)n2)cc1, the IC50 was 890 nM. CC1(C)N=C(N)N=C(N)N1OCCNCc1ccc(Cl)cc1 gave an IC50 of 160 nM. O=C(c1cncc(-c2ccccc2)c1)N(Cc1cncn1Cc1ccccc1F)CC1CC1 gave an IC50 of 800 nM. Molecule CN(C)CCCOc1cccc(NC(=O)Nc2ccc(-c3ccccc3)cc2)c1 has an IC50 of 870 nM. COc1ccc2nc(C)cc(NN=Cc3ccncc3)c2c1 showed an IC50 of 700 nM. With Cc1cccc2[nH]c(-c3cccc(-c4cccc(NC(=O)c5cccnc5)c4)c3)nc12 the IC50 was 230 nM. CC(C)(C)c1ccccc1SC1=C(O)CC2(CCNCC2)OC1=O showed an IC50 of 880 nM. In the case of CCCCNC[C@@H](O)[C@H](Cc1ccccc1)NC(=O)c1cc(NCC)cc(N2CCCCS2(=O)=O)c1, the IC50 is reported as 400 nM. In the case of CCOc1ccc2c(NN=Cc3ccccn3)cc(C)nc2c1, the IC50 is reported as 860 nM. COc1ccc(C=NNc2nc3ccccc3[nH]2)cc1O was tested, and the IC50 was 920 nM. Cc1cccc(-n2nc(C)c3c2NC(=O)CC3C(=O)c2ccc(Cl)s2)c1 (centres undefined) was tested, and the IC50 was 470 nM. O=C1CCCN1CCCNCc1ccc(-c2ccc(-c3nc4ccc(C(F)(F)F)cc4[nH]3)s2)cc1 gave an IC50 of 380 nM. In the case of CC(=O)Nc1ccc(CN2CCC(N(C)c3cc(NC(=O)c4ccc(F)cc4)ccn3)CC2)cc1, the IC50 is reported as 1120 nM. In the case of COc1cccc(CN2CCCN(Cc3cccc(NC(=O)c4ccc(Cl)c(Cl)c4)c3)CC2)c1, the IC50 is reported as 1460 nM. With COc1c(F)cc(CC(C)NCC(O)c2cccc(Cl)c2)cc1F (centres undefined) the IC50 was 1160 nM. With O=C(CSc1nc(-c2ccccc2Cl)ns1)Nc1cccc(Cl)c1 the IC50 was 790 nM. With CN(C)CCCNc1nccc(N(C)c2ccc(NC(=O)Nc3cc(C(F)(F)F)ccc3F)cc2)n1 the IC50 was 980 nM. With CC(C)(C)c1ccc(CNC(=O)c2ccc(-c3nc4ccc(C(C)(C)C)cc4[nH]3)cc2)cc1 the IC50 was 840 nM. Molecule N#Cc1cccc(CN(Cc2ccc(Cl)c(Cl)c2)S(=O)(=O)c2cccc([N+](=O)[O-])c2)c1 has an IC50 of 810 nM. Work on NC(N)=NC(=O)Nc1ccc(Cl)c([N+](=O)[O-])c1 yielded an IC50 of 760 nM. COC(=O)c1cccc(CNCc2ccc(-c3ccc(-c4nc5c(C)cccc5[nH]4)cc3)cc2)c1 was tested, and the IC50 was 280 nM. With CSc1sc(NC(=O)Nc2cccc(C(F)(F)F)c2)cc1C#N the IC50 was 910 nM. CCCO[C@H](C(=O)OC)[C@@H](CC1Cc2ccccc2C1)C(=O)NCCC1=CCCCC1 was tested, and the IC50 was 970 nM. Cc1ccc(S(=O)(=O)N(C)c2ccccc2C(=O)Nc2ccccc2Oc2ccccc2)cc1 showed an IC50 of 920 nM. O=C(CNC(=O)c1ccc(O)cc1)Nc1cccc(-c2cccc(-c3nc4ccc(C(F)(F)F)cc4[nH]3)c2)c1 was tested, and the IC50 was 1040 nM. Work on CS(=O)(=O)Cc1cccc(Nc2ncc(Cl)c(Nc3cccnc3C(N)=O)n2)c1 yielded an IC50 of 170 nM. Cn1cncc1C(=O)Nc1cccc(-c2ccc(-c3nc4ccccc4[nH]3)cc2)c1 was tested, and the IC50 was 850 nM. With COc1ccc(-c2csc3ncnc(Cl)c23)cc1 the IC50 was 780 nM. Work on O=S(=O)(c1ccc(OC(F)(F)F)cc1)C1C[C@H]2CC[C@@H](C1)N2S(=O)(=O)c1ccc(Cl)c(C(F)(F)F)c1 (some centres undefined) yielded an IC50 of 560 nM.
